Results published in patent publication US20050176822A1, “Phenylacetonitrile derivatives and hair tonics and external preparations for skin containing the derivatives” (priority 2002, published 2005).

Columns and labels:
[1] = system: artificial bulbus pili site (human dermal papilla cells + outer root sheath cells); assay: Growth-stimulative activity test on artificial human bulbus pili cell (Alamar Blue relative respiration level); assay type: cell-based; settings: for Judgment (cell growth-stimulative effect by relative respiration level): final concentration 10^−12 M or 10^−14 M (not said which), 2 days incubation, negative control 0.1% ethanol = 100%; for cell growth-stimulative effect on artificial bulbus pili site, in words: final concentration 10^−12 M or 10^−14 M, summary of Table 2
Method: Growth-Stimulative Activity Test on Artificial Human Bulbus Pili Cell
(1) Preparation of First Stage Incubated Outer Root Sheath Cell
A bulbus pili site of a hair follicle isolated from a human scalp obtained by a plastic surgery was excised and then enzymatically treated in Keratinocyte-SFM medium (GibcoBRL:11965-011) supplemented with 1000 unit/ml dispase+0.2% collagenase at 37° C. for 30 minutes. After unnecessary hair follicle mesenchymal tissue such as connective tissue root sheath was removed therefrom using the tip of a syringe needle (27G), the residue was placed in the incubating space of an incubator coated with collagen and explant culture was performed in Keratinocyte-SFM medium supplemented with an antibacterial agent. After incubation for about 1 week, the medium was exchanged upon ensuring the growth of the cells. Cells grown to be subconfluent were treated with PBS(−)+0.05% trypsin at 37° C. for 3 minutes and the reaction was stopped with an equivalent amount or more of PBS(−)+0.1% trypsin inhibitor (Sigma). The cells were collected by centrifugal separation (1200 rpm×5 min) and suspended again in PBS(−). The cells were collected by centrifugal separation (1200 rpm×5 min), thereby washing the cells. Washed cells were stored while being frozen in a liquid nitrogen using Cellbanker II (DIA-IATRON: ZCB-201(100)), thereby obtaining the first stage incubated outer root sheath cells.
(2) Preparation of First Stage Incubated Dermal Papilla Cell
From a bulbus pili site obtained by excising a hair follicle isolated from a human scalp obtained by a plastic surgery, using the tip of a syringe needle (27G), a dermal papilla site was isolated under a stereoscopic microscope and placed in the incubating space of an incubator coated with collagen. Then, explant culture was performed in 10% FBS-added DMEM medium (GibcoBRL: 11965-092) supplemented with an antibacterial agent. After incubation for about 2 week, the medium was exchanged upon ensuring the growth of the cells. Cells grown to be subconfluent were treated with PBS(−)+0.05% trypsin at 37° C. for 3 minutes and the reaction was stopped with an equivalent amount or more of PBS(−)+0.1% trypsin inhibitor (Sigma). The cells were collected by centrifugal separation (1200 rpm×5 min) and suspended again in PBS(−). The cells were collected by centrifugal separation (1200 rpm×5 min), thereby washing the cells. Washed cells were stored while being frozen in a liquid nitrogen using Cellbanker II (DIA-IATRON: ZCB-201(100)), thereby obtaining the first stage incubated dermal papilla cells.
(3) Manufacture of the Artificial Bulbus Pili Site
(§1) The first stage incubated dermal papilla cell obtained above was subcultured three times (37° C., 5% CO2) in a 10% FBS-supplemented DMEM medium (GibcoBRL: 11965-092) in a 75 cm^2 incubation flask coated with Type I collagen, and then stored while being frozen in a liquid nitrogen using Cellbanker II (DIA-IATRON: ZCB-201(100)) (DPc).
as §1, with “Also, the” for “The”, “outer root sheath” for “dermal papilla”, “Keratinocyte-SFM” for “10% FBS-supplemented DMEM”, “11965-011)” for “11965-092)”, “(ORSc).” for “(DPc).”
The DPc and ORSc stored as frozen were thawed, washed with an ice-cooled Keratinocyte-SFM medium, dispersed in Keratinocyte-SFM(+) medium (which is Keratinocyte-SFM medium supplemented with 5 ng/mL epidermal growth factor and 5 μl/mL bovine pituitary glanusi extract), and subjected to an accurate cell density measurement using a hemocytometer. Then, each cell density was adjusted at 5×10^4 cells/ml, and the cell dispersions in equal volumes were combined under cooling with ice. 80 μl aliquots of the combined cell suspending Keratinocyte-SFM(+) medium were inoculated into individual wells of Sumilon celltight spheroid 96U plate (Sumitomo Bakelit co.,), and incubated for 2 days (37° C., 5% CO2). […]

[2] = system: immortalized human outer root sheath cell; assay: Growth-stimulative activity test on immortalized human outer root sheath cell ([3H]-thymidine uptake); assay type: cell-based; settings: negative control (KBM+dH2O) = 100%, 2 days incubation
Method: Growth-Stimulative Activity Test on Immortalized Human Outer Root Sheath Cell (I) Immortalized Human Outer Root Sheath Cell Keratinocyte-SFM medium (Gibco BRL), to which a supplement attached with the medium was added, was used for culture on a dish which surface was coated with collagen. The cell was cultured until it became semiconfluent and then peeled off with 0.05% trypsin/PBS(−) and subcultured. 30-40th stage culture cells were used for study on growth. (2) Sample Preparation Each tested compound described below is dissolved with distilled water at the concentration of 10 mM and sterilized through Millipore filter. This aqueous solution was diluted with KBM at a predetermined concentration and added to the cell as a sample. The immortalized human outer root sheath cell was inoculated into a microplate (Iwaki, 24 wells) (20000 cells/well) with a growth medium KGM (Sanko Junyaku Co., Ltd., CC-3111) and incubated at 37° C. for 1 day. After each well was washed once with basal medium KBM (Sanko Junyaku Co., Ltd., CC-3101), the medium was exchanged with KBM containing each sample, and then incubated further for 2 days. [^3H]-Thymidine (Amersham Pharmacia Biotech K.K., TRK758, the final concentration: 20 μCi/ml) was added thereto and incubated at 37° C. for 3 hours. The cell was peeled off with 0.25% trypsin/PBS(−) and collected on a glass filter (Watmann, GLC). After [^3H]-thymidine that is not taken into the cell was removed by washing with distilled water, the filter was air-dried and then the radioactivity was measured by a liquid scintillation counter. […], using the uptake quantity of radioactivity in the sample-added group when that in the negative control medium (KBM+dH2O) was regarded as 100%, the immortalized human outer root sheath cell growth activity was evaluated.

## COc1ccc(C(C#N)(CCCN(C)CC(C)C)C(C)C)cc1OC (stereo not drawn) [Example 8]
[1]
  Judgment (cell growth-stimulative effect by relative respiration level): ++ (Strong effect is recognized (110% or more, and less than 115%))
  cell growth-stimulative effect on artificial bulbus pili site, in words: strong effects

## CCN(C)CCCC(C#N)(c1ccc(OC)c(OC)c1)C(C)C (stereo not drawn) [Example 4]
[1]
  Judgment (cell growth-stimulative effect by relative respiration level): +++ (Very strong effect is recognized (115% or more))
  cell growth-stimulative effect on artificial bulbus pili site, in words: very strong effects

## COc1ccc([C@@](C#N)(CCCN(C)CCC(C)C)C(C)C)cc1OC.Cl [Example 23, (R)-2-(3′,4′-dimethoxyphenyl)-2-isopropyl-5-[N-methyl-N-(3-methylbutyl)amino]-pentanenitrile hydrochloride]
[2]; concentration 10^−9 M
  [^3H]-thymidine uptake quantity: 115%
[2]; concentration 10^−10 M
  [^3H]-thymidine uptake quantity: 106%
[2]; concentration 10^−11 M
  [^3H]-thymidine uptake quantity: 107%
[2]; concentration 10^−12 M
  [^3H]-thymidine uptake quantity: 117%
[2]; concentration 10^−13 M
  [^3H]-thymidine uptake quantity: 114%
[2]; concentration 10^−14 M
  [^3H]-thymidine uptake quantity: 125%

## CCCN(C)CCCC(C#N)(c1ccc(OC)c(OC)c1)C(C)C (stereo not drawn) [Example 5]
[1]
  Judgment (cell growth-stimulative effect by relative respiration level): + (Effect is recognized (105% or more, and less then 110%))

## CCCCCN(C)CCCC(C#N)(c1ccc(OC)c(OC)c1)C(C)C (stereo not drawn) [Example 28, 2-(3′,4′-dimethoxyphenyl)-2-isopropyl-5-[N-methyl-N-(n-pentyl)amino]pentane nitrile]
[1]
  Judgment (cell growth-stimulative effect by relative respiration level): ++ (Strong effect is recognized (110% or more, and less than 115%))
  cell growth-stimulative effect on artificial bulbus pili site, in words: strong effects

## CCCCN(C)CCCC(C#N)(c1ccc(OC)c(OC)c1)C(C)C (stereo not drawn) [Example 7]
[1]
  Judgment (cell growth-stimulative effect by relative respiration level): + (Effect is recognized (105% or more, and less then 110%))

## COc1ccc(C(C#N)(CCCn2cccc2)C(C)C)cc1OC (stereo not drawn) [Example 25, 2-(3′,4′-dimethoxyphenyl)-2-isopropyl-5-pyrrole-1″-yl-pentanenitrile]
[1]
  Judgment (cell growth-stimulative effect by relative respiration level): ++ (Strong effect is recognized (110% or more, and less than 115%))
  cell growth-stimulative effect on artificial bulbus pili site, in words: strong effects

## COc1ccc(C(C#N)(CCCN(C)CCC(C)C)C(C)C)cc1OC.Cl (stereo not drawn) [Example 21, 2-(3′,4′-dimethoxyphenyl)-2-isopropyl-5-[N-methyl-N-(3-methylbutyl)amino]-pentanenitrile hydrochloride]
[2]; concentration 10^−9 M
  [^3H]-thymidine uptake quantity: 151%
[2]; concentration 10^−10 M
  [^3H]-thymidine uptake quantity: 143%
[2]; concentration 10^−11 M
  [^3H]-thymidine uptake quantity: 160%
[2]; concentration 10^−12 M
  [^3H]-thymidine uptake quantity: 114%
[2]; concentration 10^−13 M
  [^3H]-thymidine uptake quantity: 118%

## CCCN(CCC)CCCC(C#N)(c1ccc(OC)c(OC)c1)C(C)C (stereo not drawn) [Example 12]
[1]
  Judgment (cell growth-stimulative effect by relative respiration level): + (Effect is recognized (105% or more, and less then 110%))

## COc1ccc(C(C#N)(CCCN2CCOCC2)C(C)C)cc1OC (stereo not drawn) [Example 24, 2-(3′,4′-dimethoxyphenyl)-2-isopropyl-5-morpholine-4″-yl-pentanenitrile]
[1]
  Judgment (cell growth-stimulative effect by relative respiration level): ± (Weak effect is recognized (102% or more, and less then 105%))

## COc1ccc(C(C#N)(CCCn2ccnc2)C(C)C)cc1OC (stereo not drawn) [Example 26, 2-(3′,4′-dimethoxyphenyl)-5-imidazole-1″-yl-2-isopropylpentanenitrile]
[1]
  Judgment (cell growth-stimulative effect by relative respiration level): + (Effect is recognized (105% or more, and less then 110%))

## COc1ccc(C(C#N)(CCCn2cccn2)C(C)C)cc1OC (stereo not drawn) [Example 27, 2-(3′,4′-dimethoxyphenyl)-2-isopropyl-5-pyrazole-1″-yl-pentanenitrile]
[1]
  Judgment (cell growth-stimulative effect by relative respiration level): + (Effect is recognized (105% or more, and less then 110%))

## CNCCC[C@](C#N)(c1ccc(OC)c(OC)c1)C(C)C.Cl [Example 22, (R)-2-(3′,4′-dimethoxyphenyl)-2-isopropyl-5-methylaminopentanenitrile hydrochloride]
[2]; concentration 10^−9 M
  [^3H]-thymidine uptake quantity: 105%
[2]; concentration 10^−10 M
  [^3H]-thymidine uptake quantity: 98%
[2]; concentration 10^−11 M
  [^3H]-thymidine uptake quantity: 111%
[2]; concentration 10^−12 M
  [^3H]-thymidine uptake quantity: 135%
[2]; concentration 10^−13 M
  [^3H]-thymidine uptake quantity: 153%
[2]; concentration 10^−14 M
  [^3H]-thymidine uptake quantity: 160%

## COc1ccc(C(C#N)(CCCN(C)C(C)C)C(C)C)cc1OC (stereo not drawn) [Example 6]
[1]
  Judgment (cell growth-stimulative effect by relative respiration level): + (Effect is recognized (105% or more, and less then 110%))

## COc1ccc(C(C#N)(CCCN(CC(C)C)CC(C)C)C(C)C)cc1OC (stereo not drawn) [Example 15]
[1]
  Judgment (cell growth-stimulative effect by relative respiration level): + (Effect is recognized (105% or more, and less then 110%))
